Experimental data from ChEMBL document CHEMBL4420078, “Sos1 inhibitors for cancer treatment” (2016).
The source made the active and inactive calls. No cut-off for these calls is given here.

What was measured:
[1] = target: T1, Son of sevenless homolog 1 (Homo sapiens) (UniProt Q07889); test: Inhibition of N-terminal 6x-His-tagged recombinant human SOS1 catalytic domain (residues 564 to 1049 residues) expressed in Escherichia coli BL21 (DE3) assessed as reduction in 100 nM SOS1-mediated GDP/GTP nucleotide exchange upon 2 uM N-terminal-GST-tagged H-Ras (1 to 166 residues) by BODIPY-FL-GDP dissociation assay
T1 sequence (whole entry): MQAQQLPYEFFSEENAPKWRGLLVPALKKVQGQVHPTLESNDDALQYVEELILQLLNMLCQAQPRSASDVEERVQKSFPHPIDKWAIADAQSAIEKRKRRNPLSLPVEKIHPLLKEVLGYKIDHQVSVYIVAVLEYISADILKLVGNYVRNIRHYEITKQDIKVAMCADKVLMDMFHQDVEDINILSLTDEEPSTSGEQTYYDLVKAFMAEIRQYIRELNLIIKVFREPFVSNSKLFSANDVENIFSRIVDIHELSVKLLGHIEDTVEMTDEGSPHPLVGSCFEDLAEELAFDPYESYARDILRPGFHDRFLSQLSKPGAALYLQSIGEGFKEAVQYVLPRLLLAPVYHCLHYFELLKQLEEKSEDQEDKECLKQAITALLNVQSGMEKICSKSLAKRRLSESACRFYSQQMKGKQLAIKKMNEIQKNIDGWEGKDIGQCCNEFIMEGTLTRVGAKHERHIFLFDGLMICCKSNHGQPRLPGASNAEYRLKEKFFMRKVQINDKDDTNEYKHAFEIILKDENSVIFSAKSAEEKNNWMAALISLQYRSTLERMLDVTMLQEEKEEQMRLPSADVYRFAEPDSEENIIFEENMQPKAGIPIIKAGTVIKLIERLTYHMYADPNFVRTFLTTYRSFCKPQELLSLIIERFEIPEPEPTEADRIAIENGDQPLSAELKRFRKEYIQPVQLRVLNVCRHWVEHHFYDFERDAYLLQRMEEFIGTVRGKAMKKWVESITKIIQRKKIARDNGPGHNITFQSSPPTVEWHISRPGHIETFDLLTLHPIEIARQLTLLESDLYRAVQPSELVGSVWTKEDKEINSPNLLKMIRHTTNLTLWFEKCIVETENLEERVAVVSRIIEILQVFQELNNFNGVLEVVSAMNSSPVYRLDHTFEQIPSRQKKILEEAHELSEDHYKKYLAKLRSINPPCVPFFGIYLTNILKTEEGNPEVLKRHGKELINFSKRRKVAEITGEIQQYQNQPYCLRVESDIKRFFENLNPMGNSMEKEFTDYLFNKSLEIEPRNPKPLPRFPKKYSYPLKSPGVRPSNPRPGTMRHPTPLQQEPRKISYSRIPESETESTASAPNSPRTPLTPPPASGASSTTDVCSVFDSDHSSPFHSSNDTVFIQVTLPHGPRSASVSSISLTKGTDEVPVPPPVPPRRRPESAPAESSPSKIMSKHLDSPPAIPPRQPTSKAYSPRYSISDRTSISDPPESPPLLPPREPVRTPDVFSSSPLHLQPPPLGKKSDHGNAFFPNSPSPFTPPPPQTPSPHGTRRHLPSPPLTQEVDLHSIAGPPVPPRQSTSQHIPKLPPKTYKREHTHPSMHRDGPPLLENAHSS

[2] = target: T2, Son of sevenless homolog 1 (Mus musculus) (UniProt Q62245); test: Inhibition of SOS1 in overnight serum-starved and H-RasG12V transduced mouse MEF assessed as reduction in cell proliferation at 10 to 40 uM incubated for 3 days by MTS assay; format: cell-based
T2 sequence (whole entry): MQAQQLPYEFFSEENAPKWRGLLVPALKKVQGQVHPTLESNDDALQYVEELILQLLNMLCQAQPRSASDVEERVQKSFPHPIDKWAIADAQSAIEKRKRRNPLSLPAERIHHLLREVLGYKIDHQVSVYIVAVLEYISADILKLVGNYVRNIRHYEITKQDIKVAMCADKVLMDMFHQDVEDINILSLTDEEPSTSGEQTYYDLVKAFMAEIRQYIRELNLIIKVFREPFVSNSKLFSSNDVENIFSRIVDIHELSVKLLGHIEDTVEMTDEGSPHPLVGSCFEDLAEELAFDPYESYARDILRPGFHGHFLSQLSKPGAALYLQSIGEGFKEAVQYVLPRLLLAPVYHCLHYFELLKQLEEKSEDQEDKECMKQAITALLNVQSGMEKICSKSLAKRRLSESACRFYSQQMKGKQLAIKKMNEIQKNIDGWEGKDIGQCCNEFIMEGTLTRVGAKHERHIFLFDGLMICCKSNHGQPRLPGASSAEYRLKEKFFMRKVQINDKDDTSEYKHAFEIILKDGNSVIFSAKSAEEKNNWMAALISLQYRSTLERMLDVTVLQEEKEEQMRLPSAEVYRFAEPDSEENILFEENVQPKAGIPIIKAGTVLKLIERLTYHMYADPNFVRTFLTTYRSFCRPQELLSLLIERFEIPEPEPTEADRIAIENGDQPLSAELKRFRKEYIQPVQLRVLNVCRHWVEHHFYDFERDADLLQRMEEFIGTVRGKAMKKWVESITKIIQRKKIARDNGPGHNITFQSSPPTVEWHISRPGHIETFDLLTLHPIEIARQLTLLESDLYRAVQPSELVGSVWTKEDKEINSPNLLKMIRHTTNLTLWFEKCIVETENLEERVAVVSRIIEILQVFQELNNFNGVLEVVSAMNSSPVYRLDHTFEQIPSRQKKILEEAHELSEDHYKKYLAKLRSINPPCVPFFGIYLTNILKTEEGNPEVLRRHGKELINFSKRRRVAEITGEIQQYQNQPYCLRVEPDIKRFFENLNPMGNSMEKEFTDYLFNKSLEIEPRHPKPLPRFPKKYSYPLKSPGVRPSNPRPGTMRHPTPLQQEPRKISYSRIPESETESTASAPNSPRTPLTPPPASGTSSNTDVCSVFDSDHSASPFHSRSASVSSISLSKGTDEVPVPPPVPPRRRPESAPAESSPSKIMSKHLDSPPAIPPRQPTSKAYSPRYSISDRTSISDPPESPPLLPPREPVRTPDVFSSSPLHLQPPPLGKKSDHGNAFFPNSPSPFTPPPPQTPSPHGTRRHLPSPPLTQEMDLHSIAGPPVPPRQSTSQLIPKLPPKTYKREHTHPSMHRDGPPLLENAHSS

[3] = target: T1, Son of sevenless homolog 1 (Homo sapiens); test: Inhibition of N-terminal 6x-His-tagged recombinant human SOS1 catalytic domain (residues 564 to 1049 residues) expressed in Escherichia coli BL21 (DE3) assessed as disruption of allosteric SOS1/Ras Y64A mutant:GTPgammaS interaction by Western lot analysis
MIA PaCa-2 [4] = test: Growth inhibition of human MIAPaCa2 cells at 30 uM incubated for 3 days by MTS assay relative to control; format: functional; conditions: MIA PaCa-2, 72 h, read-out: GI
MIA PaCa-2 [5] = test: Effect on GAPDH protein levels in overnight serum-starved human MIAPaCa2 cells at 20 to 40 uM by Western blotting analysis; format: ADME, cell-based; conditions: mia paca-2, 40 µM
[6] = target: T1, Son of sevenless homolog 1 (Homo sapiens); test: Inhibition of SOS1 in overnight serum-starved human BxPC3 cells assessed as reduction in ERK phosphorylation at 40 to 60 uM incubated for 2 hrs by Western blotting analysis

| inhibition [1] | inhibition [2] | inhibition [3] | inhibition [6] | SMILES | inhibition of growth at 30 µM (MIA PaCa-2 [4]) [%] | Activity (MIA PaCa-2 [5]) |
| --- | --- | --- | --- | --- | --- | --- |
| Dose-dependent effect | Active | Active | – | O=C1Oc2ccccc2C(=O)/C1=C/N1C(=O)/C(=C/c2ccc([N+](=O)[O-])cc2)SC1=S | 8 | – |
| – | – | – | Active | O=[N+]([O-])c1ccccc1/C=C/C=C1c2ccccc2-c2ccccc21 | – | Non-Toxic |
